Data reported in patent publication US10597391B2, “Urea-containing isoxazole derivatives as FXR agonists and methods of use thereof” (Enanta Pharmaceuticals, Inc., priority 2016, dated 2020).
Like-named read-outs stand apart in the source and are kept apart here. One block for each compound: values may come before it.

Target: T1, human FXR (NR1H4) (Homo sapiens, UniProt Q96RI1)
T1 sequence (Q96RI1 1-486): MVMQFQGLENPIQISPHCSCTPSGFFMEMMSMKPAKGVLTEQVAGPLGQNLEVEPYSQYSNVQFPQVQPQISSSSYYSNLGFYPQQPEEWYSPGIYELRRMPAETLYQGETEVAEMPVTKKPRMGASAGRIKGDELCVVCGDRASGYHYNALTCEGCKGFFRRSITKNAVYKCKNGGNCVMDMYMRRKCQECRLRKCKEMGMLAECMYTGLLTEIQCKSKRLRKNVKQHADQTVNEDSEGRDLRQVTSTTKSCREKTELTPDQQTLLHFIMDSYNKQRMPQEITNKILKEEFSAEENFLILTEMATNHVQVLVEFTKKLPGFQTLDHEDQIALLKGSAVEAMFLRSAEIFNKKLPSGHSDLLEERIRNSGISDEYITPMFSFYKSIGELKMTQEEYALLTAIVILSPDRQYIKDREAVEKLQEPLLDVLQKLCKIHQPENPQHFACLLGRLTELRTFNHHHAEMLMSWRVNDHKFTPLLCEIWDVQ
Assay: Human FXR (NR1H4) Assay: Gal4 promoter driven luciferase reporter transactivation in CHO cells (Indigo Bioscience kit IB00601)
Format: cell-based
Conditions: for Emax: CHO, read-out: Efficacy (%); for EC50: potency range, Human FXR (NR1H4) reporter assay in CHO cells, read-out: EC50
Procedure, shortened: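 CHO reporter cells expressing human NR1H4 with luciferase driven by an FXR-responsive promoter (Gal4 system), run per manufacturer's kit. Compounds applied to plated cells, then incubated a further 22 hours at 37° C. Luciferase luminescence read after detection reagent as a surrogate of FXR activation, giving potency and efficacy.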

[1] = efficacy normalized to CDCA set as 100%

SMILES: CCOc1cc(C(=O)O)ccc1NC(=O)N1C2CCC1CC(OCc1c(-c3ccccc3C(F)(F)F)noc1C1CC1)C2 (stereo not drawn) [Example 812]
Emax [1]: 102% | EC50: 10 to 100 nM

SMILES: CC(=O)N1CCC(c2cccc(NC(=O)N3C4CCC3CC(OCc3c(-c5c(Cl)cccc5Cl)noc3C3CC3)C4)c2)CC1 (stereo not drawn) [Example 714]
Emax [1]: 156% | EC50: 10 to 100 nM

SMILES: O=C(O)c1ccc(NC(=O)N2C3CCC2CC(OCc2c(-c4c(Cl)cccc4Cl)noc2C2CC2)C3)cc1-c1cncnc1 (stereo not drawn) [Example 782]
Emax [1]: 20% | EC50: 10 to 100 nM

EC50: 10 to 100 nM
SMILES: COC(=O)c1ccc(NC(=O)N2C3CCC2CC(OCc2c(-c4ccccc4OC(F)(F)F)noc2C2CC2)C3)c(OC)c1 (stereo not drawn) [Example 236]

SMILES: CCOC(=O)c1cccc(NC(=O)N2C3CCC2CC(NCc2c(-c4c(Cl)cccc4Cl)noc2C2CC2)C3)c1 (stereo not drawn) [Example 827]
Emax [1]: 110% | EC50: < 10 nM

SMILES: O=C(O)c1ccc(NC(=O)N2C3CCC2CC(OCc2c(-c4ccccc4C4CC4)noc2C2CC2)C3)cc1-c1ccccc1 (stereo not drawn) [Example 814]
Emax [1]: 112% | EC50: 10 to 100 nM

SMILES: O=C(Nc1ccccc1)N1C2CCC1CC(OCc1c(-c3c(Cl)cccc3Cl)noc1C1CC1)C2 (stereo not drawn) [Example 696]
Emax [1]: 246% | EC50: < 10 nM

SMILES: CCOC(=O)c1ccc(NC(=O)N2C3CCC2CC(NCc2c(-c4c(Cl)cccc4Cl)noc2C2CC2)C3)c(OCC)c1 (stereo not drawn) [Example 829]
Emax [1]: 57% | EC50: 10 to 100 nM

SMILES: O=C(NCc1ccc(F)cc1)N1C2CCC1CC(OCc1c(-c3c(Cl)cccc3Cl)noc1C1CC1)C2 (stereo not drawn) [Example 732]
Emax [1]: 180% | EC50: < 10 nM

EC50: 10 to 100 nM
SMILES: Cn1nnc(-c2cccc(NC(=O)N3C4CCC3CC(OCc3c(-c5c(Cl)cccc5Cl)noc3C3CC3)C4)c2)n1 (stereo not drawn) [Example 187]

SMILES: CCOC(=O)c1ccccc1NC(=O)N1C2CCC1CC(OCc1c(-c3ccccc3OC(F)(F)F)noc1C1CC1)C2 (stereo not drawn) [Example 743]
Emax [1]: 140% | EC50: > 1000 nM

SMILES: CC1(S(=O)(=O)NC(=O)c2cnc3ccc(NC(=O)N4C5CCC4CC(OCc4c(-c6c(Cl)cccc6Cl)noc4C4CC4)C5)cc3c2)CC1 (stereo not drawn) [Example 791]
Emax [1]: 11% | EC50: 100 to 1000 nM

SMILES: O=C(NCc1cccc(-c2ccccc2)c1)N1C2CCC1CC(OCc1c(-c3c(Cl)cccc3Cl)noc1C1CC1)C2 (stereo not drawn) [Example 735]
Emax [1]: 136% | EC50: 100 to 1000 nM

SMILES: COC(=O)c1cccc(F)c1NC(=O)N1C2CCC1CC(OCc1c(-c3ccccc3OC(F)(F)F)noc1C1CC1)C2 (stereo not drawn) [Example 763]
Emax [1]: 211% | EC50: 100 to 1000 nM

SMILES: CCOC(=O)c1ccc(NC(=O)N2C3CCC2CC(NCc2c(-c4ccccc4OC(F)(F)F)noc2C2CC2)C3)c(OCC)c1 (stereo not drawn) [Example 831]
Emax [1]: 15% | EC50: 10 to 100 nM

SMILES: O=C(Nc1cccc(C2=CCCCC2)c1)N1C2CCC1CC(OCc1c(-c3c(Cl)cccc3Cl)noc1C1CC1)C2 (stereo not drawn) [Example 711]
Emax [1]: 157% | EC50: < 10 nM

SMILES: CC(=O)N1CC=C(c2cccc(NC(=O)N3C4CCC3CC(OCc3c(-c5c(Cl)cccc5Cl)noc3C3CC3)C4)c2)CC1 (stereo not drawn) [Example 713]
Emax [1]: 162% | EC50: < 10 nM

SMILES: CCOC(=O)c1cnc2ccc(NC(=O)N3C4CCC3CC(OCc3c(-c5c(Cl)cccc5Cl)noc3C3CC3)C4)cc2c1 (stereo not drawn) [Example 775]
Emax [1]: 82% | EC50: < 10 nM

SMILES: O=C(NCc1ccc(F)c(F)c1)N1C2CCC1CC(OCc1c(-c3c(Cl)cccc3Cl)noc1C1CC1)C2 (stereo not drawn) [Example 733]
Emax [1]: 175% | EC50: < 10 nM

EC50: < 10 nM
SMILES: COc1cc(C(=O)O)ccc1NC(=O)N1C2CCC1CC(OCc1c(-c3c(Cl)cccc3Cl)noc1C1CC1)C2 (stereo not drawn) [Example 192]

SMILES: O=C(Nc1ccc(-c2nnn[nH]2)cc1)N1C2CCC1CC(OCc1c(-c3c(Cl)cccc3Cl)noc1C1CC1)C2 (stereo not drawn) [Example 701]
Emax [1]: 306% | EC50: 100 to 1000 nM

EC50: < 10 nM
SMILES: COC(=O)c1ccc(NC(=O)N2C3CCC2CC(OCc2c(-c4c(Cl)cccc4Cl)noc2C2CC2)C3)cc1-c1ccccc1 (stereo not drawn) [Example 200]

EC50: 100 to 1000 nM
SMILES: O=C(O)c1cccc(NC(=O)N2C3CCC2CC(OCc2c(-c4ccccc4OC(F)(F)F)noc2C2CC2)C3)c1 (stereo not drawn) [Example 229]

EC50: 10 to 100 nM
SMILES: O=C(Nc1cc(F)c(F)c(F)c1)N1C2CCC1CC(OCc1c(-c3c(Cl)cccc3Cl)noc1C1CC1)C2 (stereo not drawn) [Example 10]

SMILES: COC(=O)c1ccc(NC(=O)N2C3CCC2CC(OCc2c(-c4c(Cl)cccc4Cl)noc2C2CC2)C3)cc1-c1ccc(OC)nc1 (stereo not drawn) [Example 784]
Emax [1]: 102% | EC50: < 10 nM

SMILES: O=C(O)c1cccc(NC(=O)N2C3CCC2CC(OCc2c(-c4ccccc4OC(F)(F)F)noc2C2CC2)C3)n1 (stereo not drawn) [Example 771]
Emax [1]: 54% | EC50: > 1000 nM

SMILES: O=C(O)c1ccc2c(c1)CCCN2C(=O)N1C2CCC1CC(OCc1c(-c3ccccc3OC(F)(F)F)noc1C1CC1)C2 (stereo not drawn) [Example 594]
Emax: 49% | EC50: 100 to 1000 nM

SMILES: O=C(NCc1ccccc1-c1ccccc1)N1C2CCC1CC(OCc1c(-c3c(Cl)cccc3Cl)noc1C1CC1)C2 (stereo not drawn) [Example 740]
Emax [1]: 90% | EC50: < 10 nM

EC50: 100 to 1000 nM
SMILES: CCOC(=O)c1ccc(NC(=O)N2C3CCC2CC(OCc2c(-c4ccccc4OC(F)(F)F)noc2C2CC2)C3)cc1 (stereo not drawn) [Example 228]

SMILES: CC(C)S(=O)(=O)NC(=O)c1cccc(NC(=O)N2C3CCC2CC(OCc2c(-c4ccccc4OC(F)(F)F)noc2C2CC2)C3)c1 (stereo not drawn) [Example 758]
Emax [1]: 233% | EC50: 100 to 1000 nM

SMILES: COC(=O)c1ccc(NC(=O)N2C3CCC2CC(OCc2c(-c4c(Cl)cccc4Cl)noc2C2CC2)C3)c(OC(C)C)c1 (stereo not drawn) [Example 719]
Emax [1]: 104% | EC50: 100 to 1000 nM

SMILES: O=C(O)c1cccc(NC(=O)N2C3CCC2CC(OCc2c(-c4ccccc4OC(F)(F)F)noc2C2CC2)C3)c1F (stereo not drawn) [Example 746]
Emax [1]: 156% | EC50: > 1000 nM

EC50: < 10 nM
SMILES: N#Cc1cccc(NC(=O)N2C3CCC2CC(OCc2c(-c4c(Cl)cccc4Cl)noc2C2CC2)C3)c1 (stereo not drawn) [Example 3]

SMILES: O=C(O)c1ccc(NC(=O)N2C3CCC2CC(OCc2c(-c4ccccc4C(F)(F)F)noc2C2CC2)C3)cc1-c1ccccc1 (stereo not drawn) [Example 815]
Emax [1]: 36% | EC50: 10 to 100 nM

SMILES: CCOC(=O)c1ccc2c(c1)N(C(=O)N1C3CCC1CC(OCc1c(-c4ccccc4OC(F)(F)F)noc1C1CC1)C3)CCC2 (stereo not drawn) [Example 595]
Emax: 7% | EC50: > 1000 nM

SMILES: CCOc1cc(C(=O)O)ccc1NC(=O)N1C2CCC1CC(NCc1c(-c3ccccc3OC(F)(F)F)noc1C1CC1)C2 (stereo not drawn) [Example 832]
Emax [1]: 50% | EC50: 10 to 100 nM

SMILES: COc1c(NC(=O)N2C3CCC2CC(OCc2c(-c4ccccc4OC(F)(F)F)noc2C2CC2)C3)cccc1C(=O)O (stereo not drawn) [Example 761]
Emax [1]: 105% | EC50: > 1000 nM

EC50: 10 to 100 nM
SMILES: O=C(O)c1ccc(NC(=O)N2C3CCC2CC(OCc2c(-c4ccccc4OC(F)(F)F)noc2C2CC2)C3)c(F)c1 (stereo not drawn) [Example 239]

EC50: 100 to 1000 nM
SMILES: O=C(N[C@H]1CC[C@H](C(=O)O)CC1)N1C2CCC1CC(OCc1c(-c3ccccc3OC(F)(F)F)noc1C1CC1)C2 (stereo partly drawn) [Example 266]

EC50: 10 to 100 nM
SMILES: O=C(c1cccc(NC(=O)N2C3CCC2CC(OCc2c(-c4c(Cl)cccc4Cl)noc2C2CC2)C3)c1)N1CCOCC1 (stereo not drawn) [Example 214]

SMILES: O=C(O)c1ccc(NC(=O)N2C3CCC2CC(OCc2c(-c4c(Cl)cccc4Cl)noc2C2CC2)C3)c(F)c1 (stereo not drawn) [Example 692]
Emax [1]: 156% | EC50: < 10 nM

EC50: < 10 nM
SMILES: COC(=O)c1ccc(NC(=O)N2C3CCC2CC(OCc2c(-c4c(Cl)cccc4Cl)noc2C2CC2)C3)cc1F (stereo not drawn) [Example 196]

SMILES: C[C@@H](NC(=O)N1C2CCC1CC(OCc1c(-c3c(Cl)cccc3Cl)noc1C1CC1)C2)c1ccccc1 (stereo partly drawn) [Example 694]
Emax: 124% | EC50: 100 to 1000 nM

SMILES: O=C(NCc1cccc(C(F)(F)F)c1)N1C2CCC1CC(OCc1c(-c3c(Cl)cccc3Cl)noc1C1CC1)C2 (stereo not drawn) [Example 734]
Emax [1]: 172% | EC50: 10 to 100 nM

EC50: < 10 nM
SMILES: O=C(O)c1ccc(NC(=O)N2C3CCC2CC(OCc2c(-c4ccccc4OC(F)(F)F)noc2C2CC2)C3)cc1-c1ccccc1 (stereo not drawn) [Example 247]

SMILES: CC1(S(=O)(=O)NC(=O)c2ccc(NC(=O)N3C4CCC3CC(OCc3c(-c5c(Cl)cccc5Cl)noc3C3CC3)C4)cc2-c2cncnc2)CC1 (stereo not drawn) [Example 790]
Emax [1]: 49% | EC50: 10 to 100 nM

SMILES: O=C(O)c1ccc(NC(=O)N2C3CCC2CC(OCc2c(-c4c(Cl)cccc4Cl)noc2C2CC2)C3)c(C2CC2)c1 (stereo not drawn) [Example 801]
Emax [1]: 70% | EC50: 10 to 100 nM

SMILES: CC(C)(C)c1ccc(NC(=O)N2C3CCC2CC(OCc2c(-c4c(Cl)cccc4Cl)noc2C2CC2)C3)cc1 (stereo not drawn) [Example 697]
Emax [1]: 174% | EC50: 100 to 1000 nM

SMILES: COC(=O)c1ccc(NC(=O)N2C3CCC2CC(OCc2c(-c4ccccc4OC(F)(F)F)noc2C2CC2)C3)cc1OC(F)(F)F (stereo not drawn) [Example 821]
Emax [1]: 75% | EC50: 10 to 100 nM

EC50: 100 to 1000 nM
SMILES: O=C(Nc1cccc(-c2nnn[nH]2)c1)N1C2CC[C@H]1CC(OCc1c(-c3c(Cl)cccc3Cl)noc1C1CC1)C2 (stereo partly drawn) [Example 185]

SMILES: COC(=O)c1ccc(F)c(NC(=O)N2C3CCC2CC(OCc2c(-c4ccccc4OC(F)(F)F)noc2C2CC2)C3)c1 (stereo not drawn) [Example 747]
Emax [1]: 145% | EC50: 100 to 1000 nM

SMILES: O=C(O)c1ccc(NC(=O)N2C3CCC2CC(OCc2c(-c4c(F)cccc4F)noc2C2CC2)C3)c(C(F)(F)F)c1 (stereo not drawn) [Example 818]
Emax [1]: 25% | EC50: 10 to 100 nM
